Like-named read-outs stand apart in the source and are kept apart here.
Tests used:
[1] = tested on: adjuvant-induced arthritis; experiment: Rat adjuvant-induced arthritis efficacy model; type: in vivo; settings: oral; for animal clinical scores / paw volumes: dose groups of 10 mg/kg and 15 mg/kg; for animal body weight increase versus vehicle group: treatment groups, 14 days dosing
[2] = Toxic side effects experiment, 14 days repeated dosing; settings: for toxic side effects: rat, in vivo; for organ tissues, blood biochemical parameters versus vehicle control group: once daily 30 mg/kg/day for 14 days
Description: The toxic side effects of the compounds of the present invention (Ia and Ib) were studied. The rats were administered once daily at 30 mg/kg/day for 14 days consecutively.

JAK1 = JAK1 (Homo sapiens, UniProt P23458); experiment: Enzyme activity inhibition, Caliper Mobility Shift Assay; type: biochemical; settings: read-out: Kinase inhibitory activity (IC50, nM) JAK1
Description: (§1) The semi-inhibitory concentration IC50 of the compounds (the concentration of the compounds required to inhibit enzyme activity to 50%) is determined by the immobilized enzyme mixed with a specific substrate and different concentrations of the test compounds. The determination method used was a Caliper Mobility Shift Assay. The kinases determined were JAK1, JAK2, JAK3 and TYK2. The standard reference compound used was staurosporine.

JAK2 = JAK2 (Homo sapiens, UniProt O60674); experiment: as above; type: biochemical; settings: for IC50: read-out: Kinase inhibitory activity (IC50, nM) JAK2
Description: as §1

hERG = molecular target: T1, hERG (Homo sapiens, UniProt Q12809); experiment: Whole cell hERG potassium channel current blocking, automatic patch clamp; type: cell-based; settings: HEK293 cells expressing hERG stably
T1 construct: expressed in transfected cells; host or cells: HEK293
From the text: Potassium channel current blocking percentage of whole cell hERG by the compounds of the present invention is studied using HEK293 cells expressing hERG stably and automatic patch clamp system detection method, the dose-effect relationship curve was obtained. The positive drug is Cisapride.

[3] = Pharmacokinetic experiments in Beagles; type: in vivo; settings: single administration; for half-life: read-out: Terminal t1/2 (converted)
Description: Experimental animals: Beagles, male and female; body weight: 7-9 kg;
Preparation of test samples: the compound (Ia) of the present invention was formulated into 2.5 mg/mL (for intravenous administration) and 2.0 mg/mL (for oral administration) for use. Routes of administration: oral/intravenous injection. Dosing capacity and frequency: 2 mL/kg (intravenous injection) or 5 mL/kg (oral), single administration.
Sample collection: blood was collected at the following time points: post-dose at 5 min, 15 min, 30 min, 1 hr, 2 hrs, 4 hrs, 8 hrs, and 24 hrs.
Sample analysis: The collected samples were tested using the LC-MS/MS method. The instrument model is API4000.
Pharmacokinetic data analysis: WinNolin was used to fit and calculate the obtained plasma concentration data according to the non-compartmental model method.

JAK3 = molecular target: T2, JAK3 (Homo sapiens, UniProt P52333); experiment: Enzyme activity inhibition, Caliper Mobility Shift Assay; type: biochemical; settings: read-out: Kinase inhibitory activity (IC50, nM) JAK3
T2 sequence (P52333 1-1124): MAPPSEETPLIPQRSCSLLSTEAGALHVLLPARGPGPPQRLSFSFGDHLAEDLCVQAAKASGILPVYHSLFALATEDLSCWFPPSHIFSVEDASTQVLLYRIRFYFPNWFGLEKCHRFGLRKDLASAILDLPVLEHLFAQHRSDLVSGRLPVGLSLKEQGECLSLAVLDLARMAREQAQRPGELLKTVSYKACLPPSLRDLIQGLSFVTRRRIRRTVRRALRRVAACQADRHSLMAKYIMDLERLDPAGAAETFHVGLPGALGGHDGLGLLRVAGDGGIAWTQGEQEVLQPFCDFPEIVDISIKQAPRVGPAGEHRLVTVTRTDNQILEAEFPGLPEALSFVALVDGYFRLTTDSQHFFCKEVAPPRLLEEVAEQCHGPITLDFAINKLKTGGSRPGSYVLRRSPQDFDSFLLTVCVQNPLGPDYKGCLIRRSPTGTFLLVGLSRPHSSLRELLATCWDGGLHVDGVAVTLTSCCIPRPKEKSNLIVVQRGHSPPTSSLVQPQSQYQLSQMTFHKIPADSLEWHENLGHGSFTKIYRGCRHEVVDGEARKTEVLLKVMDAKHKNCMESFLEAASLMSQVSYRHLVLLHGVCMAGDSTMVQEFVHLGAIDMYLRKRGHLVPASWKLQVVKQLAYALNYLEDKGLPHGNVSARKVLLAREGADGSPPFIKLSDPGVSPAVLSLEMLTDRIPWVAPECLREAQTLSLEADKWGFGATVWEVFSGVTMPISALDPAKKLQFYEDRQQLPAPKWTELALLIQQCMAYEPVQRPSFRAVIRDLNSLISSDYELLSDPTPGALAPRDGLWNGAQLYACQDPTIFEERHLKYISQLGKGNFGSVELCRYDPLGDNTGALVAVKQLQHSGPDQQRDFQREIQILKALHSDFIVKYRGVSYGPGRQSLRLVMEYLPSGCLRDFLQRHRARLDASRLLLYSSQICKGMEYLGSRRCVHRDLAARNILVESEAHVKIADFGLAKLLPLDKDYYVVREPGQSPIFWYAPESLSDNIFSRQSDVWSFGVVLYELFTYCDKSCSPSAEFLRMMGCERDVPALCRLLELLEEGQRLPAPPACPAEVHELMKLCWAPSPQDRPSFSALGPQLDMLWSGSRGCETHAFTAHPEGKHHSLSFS
Description: as §1

TYK2 = TYK2 (Homo sapiens, UniProt P29597); experiment: as above; type: biochemical; settings: read-out: Kinase inhibitory activity (IC50, nM) TYK2
Description: as §1

[4] = both sexes, beagle, dog, plasma, intravenous injection, 5 mg/kg
[5] = both sexes, beagle, dog, plasma, oral, 10 mg/kg

Chain of JAK2 (O60674 whole entry): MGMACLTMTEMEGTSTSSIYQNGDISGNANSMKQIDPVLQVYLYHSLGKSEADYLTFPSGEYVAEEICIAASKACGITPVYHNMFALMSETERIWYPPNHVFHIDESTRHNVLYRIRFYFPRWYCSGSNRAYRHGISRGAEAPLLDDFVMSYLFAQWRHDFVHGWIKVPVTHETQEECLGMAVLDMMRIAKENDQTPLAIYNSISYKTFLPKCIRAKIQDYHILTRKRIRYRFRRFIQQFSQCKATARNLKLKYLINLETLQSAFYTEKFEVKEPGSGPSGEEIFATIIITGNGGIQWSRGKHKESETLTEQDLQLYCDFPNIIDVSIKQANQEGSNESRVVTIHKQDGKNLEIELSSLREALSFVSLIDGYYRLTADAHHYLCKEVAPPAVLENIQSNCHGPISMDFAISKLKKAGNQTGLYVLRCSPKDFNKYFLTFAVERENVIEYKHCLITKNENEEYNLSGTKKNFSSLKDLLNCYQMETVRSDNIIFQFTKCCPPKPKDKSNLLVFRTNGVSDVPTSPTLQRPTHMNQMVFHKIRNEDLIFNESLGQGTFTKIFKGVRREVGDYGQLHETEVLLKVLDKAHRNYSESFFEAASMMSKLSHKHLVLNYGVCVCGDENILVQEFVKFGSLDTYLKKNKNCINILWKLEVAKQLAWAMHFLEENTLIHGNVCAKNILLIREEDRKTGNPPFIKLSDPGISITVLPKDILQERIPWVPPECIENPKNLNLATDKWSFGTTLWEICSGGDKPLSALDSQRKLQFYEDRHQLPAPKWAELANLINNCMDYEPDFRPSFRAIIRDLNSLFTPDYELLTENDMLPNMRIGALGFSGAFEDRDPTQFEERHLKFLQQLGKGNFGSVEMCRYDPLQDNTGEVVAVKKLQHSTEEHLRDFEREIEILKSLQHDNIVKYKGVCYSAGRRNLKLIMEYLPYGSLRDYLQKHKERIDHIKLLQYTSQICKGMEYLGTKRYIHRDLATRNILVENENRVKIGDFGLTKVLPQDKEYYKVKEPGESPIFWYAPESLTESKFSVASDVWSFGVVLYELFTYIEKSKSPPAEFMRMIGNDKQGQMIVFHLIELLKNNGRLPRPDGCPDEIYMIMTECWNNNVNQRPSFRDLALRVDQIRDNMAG
T1 sequence (Q12809 whole entry): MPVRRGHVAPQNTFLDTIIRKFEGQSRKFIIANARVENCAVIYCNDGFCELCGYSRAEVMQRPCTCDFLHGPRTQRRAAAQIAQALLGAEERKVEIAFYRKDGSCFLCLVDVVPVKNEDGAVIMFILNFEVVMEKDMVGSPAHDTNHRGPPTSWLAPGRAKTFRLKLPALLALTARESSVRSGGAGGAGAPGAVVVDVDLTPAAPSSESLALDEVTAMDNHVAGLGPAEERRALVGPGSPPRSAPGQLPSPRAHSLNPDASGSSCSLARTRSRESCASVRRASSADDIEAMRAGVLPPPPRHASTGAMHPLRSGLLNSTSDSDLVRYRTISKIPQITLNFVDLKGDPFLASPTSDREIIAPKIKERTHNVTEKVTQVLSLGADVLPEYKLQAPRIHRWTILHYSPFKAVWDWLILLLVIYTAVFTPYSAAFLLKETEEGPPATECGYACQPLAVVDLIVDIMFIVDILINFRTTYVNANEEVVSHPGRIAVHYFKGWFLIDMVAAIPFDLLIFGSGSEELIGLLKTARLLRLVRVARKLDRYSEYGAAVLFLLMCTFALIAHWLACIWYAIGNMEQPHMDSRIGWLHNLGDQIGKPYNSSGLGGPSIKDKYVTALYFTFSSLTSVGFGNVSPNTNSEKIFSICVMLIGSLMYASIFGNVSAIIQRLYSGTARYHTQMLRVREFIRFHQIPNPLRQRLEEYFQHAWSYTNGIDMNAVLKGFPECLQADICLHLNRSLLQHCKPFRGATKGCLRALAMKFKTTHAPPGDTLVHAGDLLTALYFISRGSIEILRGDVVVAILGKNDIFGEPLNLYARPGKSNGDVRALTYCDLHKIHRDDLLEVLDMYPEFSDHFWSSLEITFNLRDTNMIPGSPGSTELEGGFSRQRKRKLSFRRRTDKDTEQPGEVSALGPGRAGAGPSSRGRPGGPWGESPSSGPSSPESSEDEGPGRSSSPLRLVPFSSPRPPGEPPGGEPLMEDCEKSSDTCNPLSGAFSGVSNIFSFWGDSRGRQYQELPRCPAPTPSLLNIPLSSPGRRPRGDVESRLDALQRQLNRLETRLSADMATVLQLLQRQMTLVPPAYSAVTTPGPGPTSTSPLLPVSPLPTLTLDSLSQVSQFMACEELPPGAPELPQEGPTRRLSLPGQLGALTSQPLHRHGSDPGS
Chain of JAK1 (P23458 whole entry): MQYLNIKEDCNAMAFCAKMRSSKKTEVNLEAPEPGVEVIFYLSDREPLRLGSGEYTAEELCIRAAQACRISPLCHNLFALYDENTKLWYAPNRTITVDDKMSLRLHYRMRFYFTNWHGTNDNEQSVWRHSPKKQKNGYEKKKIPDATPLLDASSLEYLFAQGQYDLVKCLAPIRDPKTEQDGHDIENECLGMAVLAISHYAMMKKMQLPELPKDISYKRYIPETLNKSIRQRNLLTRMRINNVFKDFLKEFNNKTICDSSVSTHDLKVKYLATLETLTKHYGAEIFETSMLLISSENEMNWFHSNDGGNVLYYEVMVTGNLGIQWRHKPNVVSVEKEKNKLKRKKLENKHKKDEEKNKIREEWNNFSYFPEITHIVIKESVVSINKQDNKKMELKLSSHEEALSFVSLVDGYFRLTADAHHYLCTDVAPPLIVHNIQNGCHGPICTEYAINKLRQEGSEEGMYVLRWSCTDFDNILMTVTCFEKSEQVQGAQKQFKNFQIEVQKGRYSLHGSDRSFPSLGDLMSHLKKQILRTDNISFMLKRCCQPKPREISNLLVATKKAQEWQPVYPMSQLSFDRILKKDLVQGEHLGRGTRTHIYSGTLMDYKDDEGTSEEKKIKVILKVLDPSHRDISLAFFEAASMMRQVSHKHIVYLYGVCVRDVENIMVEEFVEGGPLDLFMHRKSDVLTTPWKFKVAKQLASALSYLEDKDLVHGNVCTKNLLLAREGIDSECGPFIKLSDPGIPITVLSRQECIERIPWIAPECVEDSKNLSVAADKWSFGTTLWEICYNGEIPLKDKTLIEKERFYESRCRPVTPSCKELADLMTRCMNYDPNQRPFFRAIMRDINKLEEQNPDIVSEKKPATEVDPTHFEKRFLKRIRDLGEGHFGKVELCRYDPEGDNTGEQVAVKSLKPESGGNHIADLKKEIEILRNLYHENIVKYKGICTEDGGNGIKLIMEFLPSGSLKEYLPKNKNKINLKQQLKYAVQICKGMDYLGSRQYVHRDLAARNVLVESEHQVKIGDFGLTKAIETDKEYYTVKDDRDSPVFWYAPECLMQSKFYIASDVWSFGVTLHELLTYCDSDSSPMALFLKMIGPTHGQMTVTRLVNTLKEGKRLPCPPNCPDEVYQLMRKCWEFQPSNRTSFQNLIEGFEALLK
Chain of TYK2 (P29597 whole entry): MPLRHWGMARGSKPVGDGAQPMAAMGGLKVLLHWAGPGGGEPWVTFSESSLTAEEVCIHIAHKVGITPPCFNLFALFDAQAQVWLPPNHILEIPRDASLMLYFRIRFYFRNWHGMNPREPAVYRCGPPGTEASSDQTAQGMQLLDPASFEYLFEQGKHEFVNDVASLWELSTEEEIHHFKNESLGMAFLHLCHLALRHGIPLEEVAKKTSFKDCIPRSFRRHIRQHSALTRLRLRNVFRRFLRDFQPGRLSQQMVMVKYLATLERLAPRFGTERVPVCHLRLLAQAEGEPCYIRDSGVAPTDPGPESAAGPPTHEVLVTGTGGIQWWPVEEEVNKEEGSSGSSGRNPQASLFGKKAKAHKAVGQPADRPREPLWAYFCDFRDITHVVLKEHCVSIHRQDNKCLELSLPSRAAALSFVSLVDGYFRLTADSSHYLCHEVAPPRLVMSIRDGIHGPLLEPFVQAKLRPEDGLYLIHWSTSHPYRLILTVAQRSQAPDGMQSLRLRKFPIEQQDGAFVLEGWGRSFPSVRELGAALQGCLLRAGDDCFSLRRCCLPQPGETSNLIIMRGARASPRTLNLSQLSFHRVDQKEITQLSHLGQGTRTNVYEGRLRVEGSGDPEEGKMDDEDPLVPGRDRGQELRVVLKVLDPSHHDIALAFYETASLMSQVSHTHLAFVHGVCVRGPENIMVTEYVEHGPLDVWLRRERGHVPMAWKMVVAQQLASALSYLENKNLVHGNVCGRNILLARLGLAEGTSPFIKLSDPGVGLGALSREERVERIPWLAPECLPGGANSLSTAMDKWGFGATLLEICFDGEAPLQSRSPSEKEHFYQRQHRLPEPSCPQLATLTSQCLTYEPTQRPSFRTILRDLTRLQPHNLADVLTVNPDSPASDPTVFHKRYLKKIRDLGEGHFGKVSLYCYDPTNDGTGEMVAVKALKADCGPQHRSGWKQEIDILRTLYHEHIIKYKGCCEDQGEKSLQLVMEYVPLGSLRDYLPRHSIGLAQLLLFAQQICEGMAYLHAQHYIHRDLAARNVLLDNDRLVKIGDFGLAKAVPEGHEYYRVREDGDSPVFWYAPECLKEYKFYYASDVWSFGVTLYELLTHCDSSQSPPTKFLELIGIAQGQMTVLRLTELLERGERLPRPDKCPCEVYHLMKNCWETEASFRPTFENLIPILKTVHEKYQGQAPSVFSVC

SMILES | animal clinical scores [1] | paw volumes [1] | animal body weight increase versus vehicle group [1] | toxic side effects ([2]; 30 mg/kg/day) | organ tissues, blood biochemical parameters versus vehicle control group ([2]; rats) | inhibitory effects on JAK2 kinase (JAK2) | IC50 (JAK2) [nM] | IC50 (hERG) [nM] | further results
CCS(=O)(=O)N1CCC(CC#N)(n2ccc(-c3ncnc4[nH]ccc34)c2)CC1 [Compound of formula Ib] | almost close to the normal group | almost close to the normal group | greater increases in animal body weight than that of the vehicle group | no obvious toxic side effects | no significant difference | very strong inhibitory effects | 0.4 | > 30000 | IC50 (JAK1): 31 nM; selective inhibitory activities (JAK2; JAK2 versus the other kinases tested): good selective inhibitory activities
CCS(=O)(=O)N1CC(CC#N)(n2cc(-c3ncnc4[nH]ccc34)cn2)C1 [Baricitinib, reference compound] |  |  |  | certain toxic side effects |  |  |  |  | thymus and spleen tissues size ([2]; rats, 30 mg/kg/day, same experiment): significantly reduced (a quarter of the normal size)
CCS(=O)(=O)N1CCC(CC#N)(n2cc(-c3ncnc4[nH]ccc34)cn2)CC1 [Compound of formula Ia] | almost close to the normal group | almost close to the normal group | greater increases in animal body weight than that of the vehicle group | no obvious toxic side effects | no significant difference | very strong inhibitory effects | 0.2 | > 30000 | AUC(0-t) [3, 4]: 10900 ng·h/mL; MRT inf [3, 4]: 4.16 h; clearance [3, 4]: 7.5 mL/min/kg; half-life [3, 4]: 4.78 h; Vd ([3]; both sexes, beagle, dog, plasma, intravenous injection, 5 mg/kg, read-out: Vss): 1.85 L/kg; AUC(0-t) [3, 5]: 10600 ng·h/mL; Cmax [3, 5]: 2500 ng/mL; Tmax [3, 5]: 0.25 h; half-life [3, 5]: 5.79 h; F ([3]; oral, 10 mg/kg): 49.4%; IC50 (JAK3): 27 nM; IC50 (TYK2): 7.3 nM
